In PubChem BioAssay AID1963985 (Molecular Pharmacology Branch, DTP, NCI, 2024):

Test system: 252836-082-R-J2-PDC tumor spheroids, viability
Test: Anticancer human tumor 252836-082-R-J2-PDC patient-derived head and neck squamous cell carcinoma cell line growth inhibition [PI3K]
Settings: spheroids with HUVEC and MSC; for IC50: curve of first compound; for viability, T/C: stronger effect = lower value
Summary of the method: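 Stroma-containing spheroids: tumor line, pooled-donor HUVEC, hMSC. Treatments: targeted agents with PI3K inhibitors. Dosing: clinically relevant, half-log spacing, 10 microM ceiling without known Cmax. Read-out: cell viability.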

[1] = second compound 0.00316 µM, first compound 0.0316 µM
[2] = second compound 0.00316 µM, first compound 0.1 µM
[3] = second compound 0.00316 µM, first compound 0.316 µM
[4] = second compound 0.00316 µM, first compound 1 µM
[5] = second compound 0.00316 µM, first compound 3.16 µM
[6] = second compound 0.00316 µM, first compound 10 µM
[7] = second compound 0.01 µM, first compound 0.0316 µM
[8] = second compound 0.01 µM, first compound 0.1 µM
[9] = second compound 0.01 µM, first compound 0.316 µM
[10] = second compound 0.01 µM, first compound 1 µM
[11] = second compound 0.01 µM, first compound 3.16 µM
[12] = second compound 0.01 µM, first compound 10 µM
[13] = second compound 0.0316 µM, first compound 0.0316 µM
[14] = second compound 0.0316 µM, first compound 0.1 µM
[15] = second compound 0.0316 µM, first compound 0.316 µM
[16] = second compound 0.0316 µM, first compound 1 µM
[17] = second compound 0.0316 µM, first compound 3.16 µM
[18] = second compound 0.0316 µM, first compound 10 µM
[19] = second compound 0.1 µM, first compound 0.0316 µM
[20] = second compound 0.1 µM, first compound 0.1 µM
[21] = second compound 0.1 µM, first compound 0.316 µM
[22] = second compound 0.1 µM, first compound 1 µM
[23] = second compound 0.1 µM, first compound 3.16 µM
[24] = second compound 0.1 µM, first compound 10 µM
[25] = second compound 0.316 µM, first compound 0.0316 µM
[26] = second compound 0.316 µM, first compound 0.1 µM
[27] = second compound 0.316 µM, first compound 0.316 µM
[28] = second compound 0.316 µM, first compound 1 µM
[29] = second compound 0.316 µM, first compound 3.16 µM
[30] = second compound 0.316 µM, first compound 10 µM
[31] = second compound 1 µM, first compound 0.0316 µM
[32] = second compound 1 µM, first compound 0.1 µM
[33] = second compound 1 µM, first compound 0.316 µM
[34] = second compound 1 µM, first compound 1 µM
[35] = second compound 1 µM, first compound 3.16 µM
[36] = second compound 1 µM, first compound 10 µM
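Further: spheroids exposed to agents for seven days before readout.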
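Wherever viability, T/C is given: percent of vehicle DMSO control viability so 100% = untreated growth.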

C#Cc1c(F)ccc2cc(O)cc(-c3ncc4c(N5CC6CCC(C5)N6)nc(OCC56CCCN5CC(F)C6)nc4c3F)c12 (centres undefined) + CC(Nc1ccc2c(c1)OCCn1cc(N3C(=O)OCC3C(F)F)nc1-2)C(N)=O
IC50 (second compound 0.00316 µM): > 10000 nM | IC50 (second compound 0.01 µM): > 10000 nM | IC50 (second compound 0.0316 µM): > 10000 nM | IC50 (second compound 0.1 µM): 3730 nM | IC50 (second compound 0.316 µM): 81.7 nM | IC50 (second compound 1 µM): < 31.6 nM | viability, T/C [1]: 91.8% | viability, T/C [2]: 72.8% | viability, T/C [3]: 76.1% | viability, T/C [4]: 82.2% | viability, T/C [5]: 72% | viability, T/C [6]: 50.7% | viability, T/C [7]: 83.7% | viability, T/C [8]: 73.6% | viability, T/C [9]: 78.6% | viability, T/C [10]: 71% | viability, T/C [11]: 75.6% | viability, T/C [12]: 59.5% | viability, T/C [13]: 74.6% | viability, T/C [14]: 67.4% | viability, T/C [15]: 68.9% | viability, T/C [16]: 58.8% | viability, T/C [17]: 56% | viability, T/C [18]: 56.1% | viability, T/C [19]: 62.9% | viability, T/C [20]: 56.3% | viability, T/C [21]: 61.9% | viability, T/C [22]: 61.1% | viability, T/C [23]: 49.3% | viability, T/C [24]: 38.9% | viability, T/C [25]: 56% | viability, T/C [26]: 45.9% | viability, T/C [27]: 46.7% | viability, T/C [28]: 38% | viability, T/C [29]: 39.4% | viability, T/C [30]: 32.6% | viability, T/C [31]: 46.1% | viability, T/C [32]: 38.7% | viability, T/C [33]: 45.1% | viability, T/C [34]: 36.6% | viability, T/C [35]: 33.2% | viability, T/C [36]: 26.6%

CC1(C)CCC(Nc2ncc(C(F)(F)F)c(-c3c[nH]c4c(P(C)(C)=O)c(C#N)ccc34)n2)CN1 (centres undefined) + CC(Nc1ccc2c(c1)OCCn1cc(N3C(=O)OCC3C(F)F)nc1-2)C(N)=O
IC50 (second compound 0.00316 µM): < 31.6 nM | IC50 (second compound 0.01 µM): < 31.6 nM | IC50 (second compound 0.0316 µM): < 31.6 nM | IC50 (second compound 0.1 µM): < 31.6 nM | IC50 (second compound 0.316 µM): < 31.6 nM | IC50 (second compound 1 µM): < 31.6 nM | viability, T/C [1]: 27.2% | viability, T/C [2]: 24.2% | viability, T/C [3]: 29.6% | viability, T/C [4]: 24.5% | viability, T/C [5]: 26.2% | viability, T/C [6]: 5.32% | viability, T/C [7]: 27.5% | viability, T/C [8]: 27.6% | viability, T/C [9]: 25.7% | viability, T/C [10]: 25.6% | viability, T/C [11]: 23.5% | viability, T/C [12]: 4.5% | viability, T/C [13]: 26.8% | viability, T/C [14]: 29.1% | viability, T/C [15]: 22.2% | viability, T/C [16]: 23.8% | viability, T/C [17]: 27.3% | viability, T/C [18]: 4.59% | viability, T/C [19]: 24.1% | viability, T/C [20]: 20.6% | viability, T/C [21]: 22.1% | viability, T/C [22]: 24.8% | viability, T/C [23]: 22.9% | viability, T/C [24]: 3.21% | viability, T/C [25]: 20.6% | viability, T/C [26]: 21% | viability, T/C [27]: 21.1% | viability, T/C [28]: 19.5% | viability, T/C [29]: 20.2% | viability, T/C [30]: 3.5% | viability, T/C [31]: 18.4% | viability, T/C [32]: 19.3% | viability, T/C [33]: 16.6% | viability, T/C [34]: 19.6% | viability, T/C [35]: 18.2% | viability, T/C [36]: 2.31%
